Experimental data: US20260151370A1, “Nutritional composition for neurodegeneration and neurotrauma” (N.V. Nutricia, priority 2023, published 2026)

System: PC12 neuronal cells
Assay: Neurite outgrowth in NGF-differentiated PC12 neuronal cell cultures (Calcein-AM/Hoechst imaging)
Assay type: cell-based
Protocol: In order to assess the effects of nutritional components on axonal outgrowth and dendritic arborization underlying functional brain connectivity, the effects of nutrient supplementation on neurite outgrowth parameters in PC12 pheochromocytoma cells was investigated. PC12 neuronal cell model is one of the most widely used cell models for the study of neuronal differentiation. PC12 pheochromocytoma cells were grown in DMEM (Gibco), supplemented with 10% fetal bovine serum (FBS), penicillin (100 units/ml), and streptomycin (100 μg/ml) (Gibco), under a humidified atmosphere with 95% air and 5% CO2 at 37° C. Cells were seeded onto a collagen (0.01 mg/ml) coated 96-well plates at a density of 5000 cells/well and after 24 hours supplemented with medium containing 20 ng/ml nerve growth factor (NGF) with or without the components as defined in the present and in the following examples. Cell cultures were incubated at 37° C. in 5% CO2 and medium was replaced every 2-3 days. DHA and EPA were resuspended in absolute ethanol and diluted 5 times in fetal bovine serum. Other compounds were dissolved in DMEM. All compounds were purchased from Sigma (Zwijndrecht, The Netherlands). Supplementation of cells was performed in 6-fold in 96 wells plates. Neurite outgrowth of these conditions was compared to non-supplemented cells. After 48 hours of nutrient supplementation, cell bodies and neurites were stained using Calcein-AM stain (0.2 μg/ml) (Invitrogen, batch #C3100MP) and the nuclei were counterstained using Hoechst stain (1.2 μg/ml) (Thermo Scientific, batch #62249) in 100 μl culture medium per well and incubated for 20 min at 37° C. Subsequently, FITC and DAPI images (9 images per well, 6 wells per condition) were taken using an ImageXpress Micro Confocal high content imaging system (Molecular Devices). Neurite length was quantified using the neurite outgrowth module in MetaXpress. Image analysis was carried out using the neurite outgrowth analysis module in MetaXpress (Molecular Devices). The measurements taken from each well included the number of nuclei and the mean neurite outgrowth (μm) per cell. The data was normalized to and expressed as a relative percentage of the plate-averaged value of the vehicle-treated control wells.

[1] = FIG. 8 plate: BA 200 μM, B2 0.25 μM, DHA 2.5 μM, D3 0.25 μM, PC 20 μM, alone or combined
[2] = FIG. 9 first plate: B2 0.25 μM, D3 0.75 μM, PC 15 μM, BA 40 μM, alone or together with reference diet
[3] = FIG. 1 plate: DHA 6.7 μM, EPA 10 μM, vitamin B2 1.25 μM, vitamin D3 0.25 μM, alone or combined, 48 hours, 20 ng/ml NGF
[4] = FIG. 4 plate: total 20 μM choline from chol-Cl, PC or both

Molecule	neurite outgrowth compared to control (FIG. 7 plate: BA 200 μM)	neurite outgrowth compared to control (FIG. 7 plate: BA 12.5, 25, 50, 100 and 200 μM)	observed mean neurite outgrowth, percentage relative to control (100%) [1]	observed mean neurite outgrowth, percentage relative to control (100%) [2]	observed mean neurite outgrowth, percentage relative to control (100%) [3]	neurite outgrowth compared to control [4]	observed mean neurite outgrowth, percentage relative to control (100%) (FIG. 5 plate: choline 20 μM (chol-Cl and/or PC), DHA 3.3 μM, B2 0.5 μM, D3 0.25 μM)
CCCC(=O)O [BA, butyric acid]	strongest effect on neurite outgrowth	increased neurite outgrowth in a dose-dependent manner	increased neurite outgrowth more than supplementation of vitamin B2 and D3 alone	increased neurite outgrowth			
C=C1CC[C@H](O)C/C1=C/C=C1\CCC[C@]2(C)[C@@H]([C@H](C)CCCC(C)C)CC[C@@H]12 [vitamin D3, cholecalciferol]				increased neurite outgrowth	increased neurite outgrowth		
Cc1cc2nc3c(=O)[nH]c(=O)nc-3n(C[C@H](O)[C@H](O)[C@H](O)CO)c2cc1C [vitamin B2, riboflavin]				increased neurite outgrowth	increased neurite outgrowth		
phosphatidylcholine [PC]			increased neurite outgrowth more than supplementation of vitamin B2 and D3 alone	increased neurite outgrowth		increases neurite outgrowth more than supplementation with 100 mole % chol-Cl	increased neurite outgrowth more than supplementation with 100 mole % chol-Cl
C[N+](C)(C)CCO.[Cl-] [chol-Cl, choline-chloride]						enhance neurite outgrowth	
